Experimental data reported in publication PMC3050021 (Cancer cell, 2010).
Entries after “also recorded” stand apart in the source; their conditions may differ. Residues, ends and D or L forms follow the SMILES beside them. *: point of attachment. Cbz = O=C(OCc1ccccc1)*

Tests used:
[1] = system: p53-HDMX complex (JEG-3 cells); test: Anti-HDMX immunoprecipitation, p53 western, JEG-3; type: cell-based, human
MCF-7 cells [2] = conditions: ref Wade et al., 2008; cited from earlier work
[3] = system: caspase-3/7 (JEG-3 cells); test: Caspase-3/7 activation, JEG-3; type: cell-based, human; conditions: 0.3–10 µM, 12 h, Caspase-3/7-Glo, Figure 5B
[4] = system: HCT116 cells deficient in p53; test: Cell viability HCT116 deficient in p53; type: cell-based; conditions: 0.3–20 µM, 24 h, CellTiter-Glo; genetic deletion of p53; Figure 3F, 3G
JEG-3 cells = test: Cell viability JEG-3; type: cell-based, human; conditions: 0.3–20 µM, 24 h, CellTiter-Glo; HDMX-overexpressing choriocarcinoma; Figure 3C
HCT116 cells = test: Cell viability HCT116; type: cell-based; conditions: 0.3–20 µM, 24 h, CellTiter-Glo; HDM2- and HDMX-expressing colon cancer; Figure 3A–E
SJSA-1 cells = test: Cell viability SJSA-1; type: cell-based; conditions: 0.3–20 µM, 24 h, CellTiter-Glo; HDM2-overexpressing osteosarcoma; Figure 3A
[5] = ref Vassilev et al., 2004; cited from earlier work
SJSA-X cells [6] = test: Combination / synergy study, SJSA-X; type: cell-based; conditions: SJSA-X (induced HDMX expression in isogenic SJSA-1), 0.5–20 µM; Figure 7G
HDM2 = conditions: ref Vassilev et al., 2004; cited from earlier work
p53 (JEG-3 cells) = test: p53 western analysis, JEG-3; type: cell-based, human; conditions: 20 µM, 6 h, Figure 4A
[7] = system: osteosarcoma murine xenograft; conditions: ref Vassilev et al., 2004; cited from earlier work
p53 (MCF-7 cells) = test: p53 western analysis, MCF-7; conditions: Nutlin-3 20 µM, 10 µM MG-132, 6 h, Figure 7A
SJSA-X cells [8] = test: Cell viability SJSA-X; type: cell-based; conditions: 0.3–20 µM, 24 h, CellTiter-Glo; overexpresses HDM2 and HDMX; Figure 3B
[9] = system: p53-HDMX complex (MCF-7 cells); test: Anti-HDMX immunoprecipitation, p53 western, MCF-7; type: cell-based; conditions: Nutlin-3 20 µM alone or with 5 or 20 µM SAH-p53-8, 10 µM MG-132, 6 h, Figure 7A
[10] = system: WS1 normal human fibroblasts; test: Cell viability WS1 normal fibroblasts; conditions: 0.3–20 µM, 24 h, CellTiter-Glo; Figure 3I
MCF-7 cells [11] = test: Cell viability MCF-7; type: cell-based; conditions: 0.3–20 µM, 24 h, CellTiter-Glo; HDM2- and HDMX-expressing breast cancer; Figure 3A–E
A431 cells (R273H p53) = test: Cell viability A431; type: cell-based; conditions: 0.3–20 µM, 24 h, CellTiter-Glo; R273H p53 mutation

Row | SMILES | p53-HDMX complex in the presence of MG-132 ([1]; 0–20 µM SAH-p53-8 with 10 µM MG-132, 6 h, Figure 4B) | sensitivity of MCF-7 to Nutlin-3 (MCF-7 cells [2]) | caspase-3/7 activation [3] | cell viability HCT116 deficient in p53 [4] | cell viability JEG-3 (JEG-3 cells) | cell viability HCT116 (HCT116 cells) | cell viability SJSA-1 (SJSA-1 cells) | cell cycle arrest and apoptosis [5] | single-agent effect in synergy study (SJSA-X cells [6]) | p53-HDMX complex ([1]; 20 µM, 6 h, anti-HDMX IP, Figure 4A) | inhibition of HDM2 (HDM2) | p53 levels (p53 (JEG-3 cells)) | anti-tumor efficacy [7] | p53 levels (p53 (MCF-7 cells)) | cell viability SJSA-X (SJSA-X cells [8]) | p53-HDMX complex [9] | viability of normal human fibroblasts WS1 [10] | cell viability MCF-7 (MCF-7 cells [11]) | cell viability A431 (A431 cells (R273H p53))
1 | CC(C)C[C@@H](C=O)NC(=O)[C@H](CC(C)C)NC(=O)[C@H](CC(C)C)NC(=O)OCc1ccccc1 [MG-132] (Cbz-Leu-Leu-Leu-aldehyde) | increased p53-HDMX complex |  |  |  |  |  |  |  |  |  |  |  |  |  |  |  |  |  | 
2 | COc1ccc(C2=N[C@@H](c3ccc(Cl)cc3)[C@@H](c3ccc(Cl)cc3)N2C(=O)N2CCNC(=O)C2)c(OC(C)C)c1 [Nutlin-3] |  | only modestly sensitive | little effect | completely insensitive | little to no response; also recorded: most resistant to Nutlin-3 | modestly sensitive | very sensitive; also recorded: more cytotoxic than SAH-p53-8 in SJSA-1 cells | triggers cell cycle arrest and apoptosis | ineffective as a single agent | p53-HDMX complexes were preserved, if not increased | inhibits HDM2 | an increase in p53 levels was observed | exhibits anti-tumor efficacy | can elevate p53 levels in MCF-7 cells | little to no response | appearance of the inhibitory p53-HDMX complex | no impact on the viability of normal human fibroblasts | modestly sensitive | similarly unaffected
